Data taken from PubChem BioAssay AID1996.
Converted amounts (≈) assume the structure as drawn.

Details: buffer; pH 7.4; 200.0 µM
In the case of `CCC(CO)(C(=O)OC1CC2CCC(C1)N2C)c1ccccc1.Cl` (stereo not drawn), the solubility kinetic is reported as greater than 53.1 µg/mL.
With `O=C(C1CC1)N1c2ccccc2Sc2ccccc21` the solubility kinetic was 7.1 µg/mL (≈ 26.6 µM).
For `O=C(O)/C=C/C(=O)Nc1ccc(OC(F)(F)F)cc1Br`, the solubility kinetic was greater than 53.1 µg/mL.
`O=C1Nc2ccccc2C(c2ccccc2)=NC1O` (stereo not drawn) showed a solubility kinetic greater than 37.8 µg/mL.
For `COc1cc2c(cc1OC)CN(c1ccc(C(F)(F)F)cn1)CC2`, the solubility kinetic was 34.9 µg/mL (≈ 103 µM).
Molecule `CC(NC(=O)CNC(=O)c1ccccc1Br)c1cccs1` (stereo not drawn) has a solubility kinetic greater than 55.1 µg/mL.
With `CC1(C)CC(=O)C(C2=NC3(CCCCC3)Cc3ccccc32)=C(O)C1` the solubility kinetic was greater than 50.6 µg/mL.
`Cc1cccc(NC(=O)C(=O)NCC2CCCO2)c1` (stereo not drawn) gave a solubility kinetic greater than 39.3 µg/mL.
For `O=C(Nc1cccc([N+](=O)[O-])c1)Nc1ccc2c(c1)OCCO2`, the solubility kinetic was 0.4 µg/mL (≈ 1.27 µM).
Work on `CC(=O)Nc1ccc(S(=O)(=O)NCC(=O)OCC(=O)NCc2ccc3c(c2)OCO3)cc1` yielded a solubility kinetic greater than 69.5 µg/mL.
`COc1cc2c(cc1OC)CN(C(=O)CCOc1ccccc1)CC2` showed a solubility kinetic of 30.3 µg/mL (≈ 88.8 µM).
`O=C(CSc1ncnc2sccc12)N1CCCCC1` showed a solubility kinetic greater than 44 µg/mL.
`CCOC(=O)c1c(NC(=O)NC(C)(C)C)sc2c1CCN(C)C2` showed a solubility kinetic of 14.9 µg/mL (≈ 43.9 µM).
For `COC(=O)C1CCN(C(=O)CN2C(=O)NC(CC(C)C)C2=O)CC1` (stereo not drawn), the solubility kinetic was greater than 50.9 µg/mL.
For `CCN(CC)S(=O)(=O)c1ccc(N2CCOCC2)c(NC(=O)c2[nH]c(C)c(C(C)=O)c2C)c1`, the solubility kinetic was 3.9 µg/mL (≈ 8.18 µM).
Work on `Cc1ccc(Cn2ccsc2=NC(=O)COC(=O)C(C)C)cc1` yielded a solubility kinetic of 45.3 µg/mL (≈ 136 µM).
`O=C(COC(=O)c1ccccc1Cl)NCc1ccco1` gave a solubility kinetic greater than 44.1 µg/mL.
Molecule `O=C(Nc1ncc(Cc2cccc(Cl)c2Cl)s1)C1CCCO1` (stereo not drawn) has a solubility kinetic of 1.9 µg/mL (≈ 5.32 µM).
With `O=C(COC(=O)c1ccc(F)c(S(=O)(=O)N2CCOCC2)c1)NCc1ccc(F)cc1` the solubility kinetic was greater than 68.2 µg/mL.
Molecule `CCOC(=O)C(=CNc1ccccc1N1CCOCC1)C(=O)OCC` has a solubility kinetic of 45.6 µg/mL (≈ 131 µM).
`Cc1ccc(C)c(C(=O)COC(=O)C(C)N2C(=O)C3C4CCC(C4)C3C2=O)c1` (stereo not drawn) showed a solubility kinetic of 42 µg/mL (≈ 110 µM).
In the case of `COc1cccc(-c2cc(C(=O)NC3CCCCC3)no2)c1`, the solubility kinetic is reported as less than 0.3 µg/mL.
Work on `COc1cc(SC)ccc1C(=O)OCC(=O)N1CCCC1` yielded a solubility kinetic greater than 46.4 µg/mL.
Molecule `O=C(COC(=O)c1ccc2ccccc2n1)Nc1ccccc1Br` has a solubility kinetic of 12.4 µg/mL (≈ 32.2 µM).
For `CC(C)c1ccc(C(=O)NC(=S)Nc2ccc3[nH]c(=O)[nH]c3c2)cc1`, the solubility kinetic was 0.5 µg/mL (≈ 1.41 µM).
`Cc1cccnc1NC(=O)c1ccc2c(c1)OCO2` gave a solubility kinetic greater than 38.4 µg/mL.
Work on `Cc1ccc(NC(=O)NC2CCCc3ccccc32)cc1` (stereo not drawn) yielded a solubility kinetic of less than 0.3 µg/mL.
`CCN(CC(=O)NC1CCS(=O)(=O)C1)S(=O)(=O)c1ccccc1Cl` (stereo not drawn) gave a solubility kinetic greater than 59.2 µg/mL.
`COc1ccc(Nc2nc3ccccc3n2C)cc1` gave a solubility kinetic of 36.5 µg/mL (≈ 144 µM).
With `CCOc1ccccc1/C=N/OCC(=O)NCc1ccc(F)cc1` the solubility kinetic was 32.9 µg/mL (≈ 99.6 µM).
In the case of `COc1ccccc1NC(=O)N1CCN(C)CC1`, the solubility kinetic is reported as 30.8 µg/mL (≈ 124 µM).
Work on `Cc1ccc(OC(C)C(=O)Nc2ccc(F)cc2)c([N+](=O)[O-])n1` (stereo not drawn) yielded a solubility kinetic of 39.7 µg/mL (≈ 124 µM).
`CN(c1ccccc1)S(=O)(=O)c1ccc(C(=O)N2CCN(c3ccccc3Cl)CC2)cc1` gave a solubility kinetic of 6.8 µg/mL (≈ 14.5 µM).
For `c1ccc(-n2cccc2)c(N2CCCCC2)c1`, the solubility kinetic was less than 0.2 µg/mL.
For `CCc1ccn2cc(-c3cc(-c4ccccc4)no3)nc2c1`, the solubility kinetic was 1.5 µg/mL (≈ 5.18 µM).
In the case of `COc1ccccc1C1CCN(C(=O)c2ccc(C(C)(C)C)cc2)CC1`, the solubility kinetic is reported as 3.1 µg/mL (≈ 8.82 µM).
`COc1ccc(N2C(=S)NC3CS(=O)(=O)CC32)cc1` (stereo not drawn) gave a solubility kinetic greater than 44.8 µg/mL.
With `CC(C)(C)OC(=O)N1Cc2ccccc2C[C@H]1C(=O)NC1CCCC1` the solubility kinetic was greater than 51.7 µg/mL.
With `CC(C)N1C(=O)CCC1C(=O)NCc1cccs1` (stereo not drawn) the solubility kinetic was greater than 40 µg/mL.
Molecule `CC(C)(CNC(=O)Cc1ccc(Cl)cc1Cl)N1CCCCC1` has a solubility kinetic greater than 51.5 µg/mL.
Work on `CC1CC(=O)Nc2cc([N+](=O)[O-])ccc2N1` (stereo not drawn) yielded a solubility kinetic greater than 33.2 µg/mL.
`Cc1ccc(S(=O)(=O)NCC(=O)Nc2cccc([N+](=O)[O-])c2)cc1` gave a solubility kinetic of 22.7 µg/mL (≈ 65 µM).
`CCCC1NC(C(=O)O)Cc2c1[nH]c1ccccc21` (stereo not drawn) gave a solubility kinetic of 37.3 µg/mL (≈ 144 µM).
With `O=c1c2cc3c(nc2[nH]c(=S)n1-c1ccccc1)CCCC3` the solubility kinetic was 0.5 µg/mL (≈ 1.62 µM).
`COc1cccc(NC(=O)C(C)N2C(=O)c3ccccc3C2=O)c1` (stereo not drawn) gave a solubility kinetic of 27.3 µg/mL (≈ 84.2 µM).
With `CCOC(=O)CN/C=C(\C#N)c1ccc(F)cc1` the solubility kinetic was 36.4 µg/mL (≈ 147 µM).
With `O=[N+]([O-])c1ccc([N+](=O)[O-])c(Nc2ccc(N3CCOCC3)cc2)c1` the solubility kinetic was less than 0.2 µg/mL.
Work on `CCN(CC)S(=O)(=O)c1ccc(NCCc2ccccn2)nc1` yielded a solubility kinetic of 49.2 µg/mL (≈ 147 µM).
`Cc1ccc(-c2noc(N=O)c2NO)cc1` gave a solubility kinetic of 31.5 µg/mL (≈ 144 µM).
With `O=C1COc2ccc(C(=O)COC(=O)CCOc3ccccc3)cc2N1` the solubility kinetic was 10.1 µg/mL (≈ 28.4 µM).
For `COc1ccc(CNc2ncnc3c2[nH]c2cc(OC)c(OC)cc23)cc1`, the solubility kinetic was 1.2 µg/mL (≈ 3.29 µM).
In the case of `CN(CC(=O)Nc1ccc(S(N)(=O)=O)cc1)C1CCCCC1`, the solubility kinetic is reported as greater than 48.8 µg/mL.
Work on `CC(=O)N1CCN(C(=S)Nc2ccc(SC(F)F)cc2)CC1` yielded a solubility kinetic greater than 51.8 µg/mL.
In the case of `C=CCS(=O)(=O)N1CCCC(N(C)CCc2ccc(OC)c(OC)c2)C1` (stereo not drawn), the solubility kinetic is reported as 44.4 µg/mL (≈ 116 µM).
Molecule `O=C(COC(=O)c1cc(Br)ccc1O)NC12CC3CC(CC(C3)C1)C2` has a solubility kinetic of 3.1 µg/mL (≈ 7.59 µM).
In the case of `C[C@@H](NCCc1ccc(O)cc1)[C@@H](O)c1ccc(O)cc1.Cl`, the solubility kinetic is reported as greater than 48.6 µg/mL.
Molecule `Cc1cc(NC(=O)CSc2nnc(C)n2-c2ccccc2C)no1` has a solubility kinetic greater than 51.5 µg/mL.
`Cc1ccc(C(=O)Nc2cccnc2N2CCN(C)CC2)cc1` showed a solubility kinetic greater than 46.6 µg/mL.
